The target in one assay is T1, MAT2A homodimer (Homo sapiens, UniProt P31153).
T1 construct: inferred from Ni sepharose purification with imidazole elution; made in house; host or cells: Sf9 insect cells, baculovirus (Bac to Bac, pFASTBAC1)
Nature of the assay: MAT2A inhibition (biochemical, liberated phosphate, PiColorLock Gold). The following applies: recombinant MAT2A homodimer; IC50 bin with Max Inh.; read-out: Enzyme Inhibition Bin. In a few lines:
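Enzyme at 4 μg/mL and compound equilibrated 60 min at 25 °C, then 60 min reaction after adding substrate mix (500 μM ATP, 400 μM methionine). Released phosphate quantified by colorimetric kit against a phosphate standard curve to give IC50. Secondary format used 1 μg/mL enzyme with 5 h incubation.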

Assay [1] concerns SAM in HCT116 human colon carcinoma cell line with MTAP gene deleted (MTAP −/−). Nature of the assay: Cellular assay of target engagement (SAM), LC-MS/MS, 72 hrs. In kind it is cell-based. The following applies: HCT-116, IC50 bin with Max Inh., read-out: Cell 72 h SAM Inhibition (MTAP −/−). The method, then:
Measurement of MAT2A activity in cells was made by direct quantitation of the abundance of the product of its enzymatic activity, SAM. Cancer cells were treated with candidate MAT2A inhibitors for a suitable incubation period, and the cells were then lysed using a reagent which quenched any further enzyme activity. Soluble metabolites including SAM were collected and SAM itself was directly measured from the lysate using quantitative LC-MS/MS.
A typical assay was performed using an HCT116 human colon carcinoma cell line which was genetically engineered to delete the MTAP gene (commercially available from Horizon Discovery). This cell line was utilized because it was determined that loss of the MTAP gene predicts sensitivity to MAT2A inhibitors. Cells were plated in 96-well dishes at appropriate cell density. Following 24 hours, cells were then treated with the candidate MAT2A inhibitor. Prior to addition to cells, the compound was first serially diluted in 100% DMSO, typically as a 3-fold serial dilution starting at 500× top dose with 10 dose points including DMSO only control. Compound was then transferred to a working stock plate in cell culture media by adding 5 μL of compound in DMSO to 495 μL of cell culture media. This working stock was then added to cells via a further 5-fold dilution, by adding 25 μL of working stock to 100 μL of cells in culture media. Following compound addition, cells were incubated at 37° C./5% CO2 for 72 hrs.
To quantitate SAM levels following compound treatment, cells were gently washed once in ammonium carbonate buffer (75 mM at pH 7.4), placed on dry ice, and lysed with metabolite extraction buffer (80% cold methanol and 20% water (v/v) with acetic acid at 1M final concentration with 200 ng/mL deuterated d3-SAM as internal control). Following centrifugation at 4° C. at 3,200 rpm for 30 minutes, the supernatant was collected and stored at −80° C. until analysis by Liquid Chromatography with tandem Mass Spectrometry (LC-MS/MS). LC-MS/MS analysis was performed using an API6500 Mass Spectrometer (Sciex, Framingham, Mass., USA) operating in positive ion spray mode and equipped with a Waters UPLC Acquity (Waters, Milford, Mass., USA) BEH Amide column. Multiple Reaction Monitoring data was acquired for SAM and the d3-SAM standard, using a mass transition pair at m/z 399.2→250.1 and 402.2→250.1, respectively. In a typical LC-MS/MS analysis, the initial flow rate was 0.5 ml/min of 25% mobile phase A (acetonitrile and water at 5:95 (v/v) with 1% formic acid and 10 mM ammonium acetate) and 75% mobile phase B (acetonitrile and water at 95:5 (v/v) with 1% formic acid and 10 mM ammonium acetate), 0.2-0.5 minutes with 75%-35% mobile phase B, 25%-65% mobile phase A, at 0.5 min 65% mobile phase A and 35% mobile phase B, 1.0-1.1 minutes with 35%-75% mobile phase B, 65%-25% mobile phase A, at 1.1 min 25% mobile phase A and 75% mobile phase B with a total run time of 1.5 minutes.
Specific compounds disclosed herein were tested in the foregoing assay and they were determined to inhibit SAM with an IC50. See, Table 1 below.

The test system of the next assay is HCT116 MTAP−/−. Nature of the assay: Inhibition of cellular proliferation, 4 days, Cell Titer Glo, HCT116 MTAP−/−. In kind it is cell-based. The note with it: Homo sapiens, HCT-116, 96 h, IC50 bin with Max Inh., read-out: 4 Day Relative Growth Inhibition (MTAP −/−). The method, then: (§1) Test compound impact on cancer cell growth was assessed by treating cancer cells with compound for 4 days and then measuring proliferation using an ATP-based cell proliferation readout (Cell Titer Glo, Promega Corporation).
(§2) In a typical assay an isogenic pair of HCT116 human colon carcinoma cell lines which vary only in MTAP deletion status (HCT116 MTAP+/+ and HCT116 MTAP−/−) were plated in 96-well dishes at appropriate cell density. Following 24 hours, cells were then treated with the candidate MAT2A inhibitor. Prior to addition to cells, the compound was first serially diluted in 100% DMSO, typically as a 3-fold serial dilution starting at 500× top dose with 10 dose points including DMSO only control. Compound was then transferred to a working stock plate in cell culture media by adding 5 μL of compound in DMSO to 495 μL of cell culture media. This working stock was then added to cells via a further 5-fold dilution, by adding 25 μL of working stock to 100 μL of cells in culture media. Following compound addition, cells were incubated at 37° C./5% CO2 for 4 days.
(§3) To measure inhibition of cellular proliferation, cells were allowed to equilibrate to room temperature for 30 minutes, and were then treated with 125 μL of Cell Titer Glo reagent. The plate was then covered with aluminum foil and shaken for 15 minutes to ensure complete mixing and full cell lysis. Luminescent signal was then measured using a plate-based luminometer Veritas version 1.9.2 using ATP standard curve to confirm assay reproducibility from run to run. This luminescence measure was converted to a proliferation index by subtracting from each data point the ATP luminescence signal measured from a bank (no cells) well and dividing by the ATP luminescence signal measured in 0.2% DMSO control well adjusted for signal in blank well. Compound activity was then represented as a percentage change in proliferation relative to a within-plate DMSO control against log 10 of compound concentration in molar (M) units.
(§4) Specific compounds disclosed herein were tested in the foregoing assay and they were determined to inhibit cellular proliferation with an IC50. See, Table 1 below.

In a further assay the test system is HCT116 MTAP+/+. Nature of the assay: Inhibition of cellular proliferation, 4 days, Cell Titer Glo, HCT116 MTAP+/+. The format is cell-based. The note with it: Homo sapiens, HCT-116, 96 h, IC50 bin with Max Inh., read-out: 4 Day Relative Growth Inhibition (MTAP +/+). Here is the method:
as §1, §2, §3, §4
(In general: In ATP-based viability assays light output follows the ATP content of the culture.)

Where only a bound is given, the exact number is not on record here.

T1 sequence (P31153 whole entry): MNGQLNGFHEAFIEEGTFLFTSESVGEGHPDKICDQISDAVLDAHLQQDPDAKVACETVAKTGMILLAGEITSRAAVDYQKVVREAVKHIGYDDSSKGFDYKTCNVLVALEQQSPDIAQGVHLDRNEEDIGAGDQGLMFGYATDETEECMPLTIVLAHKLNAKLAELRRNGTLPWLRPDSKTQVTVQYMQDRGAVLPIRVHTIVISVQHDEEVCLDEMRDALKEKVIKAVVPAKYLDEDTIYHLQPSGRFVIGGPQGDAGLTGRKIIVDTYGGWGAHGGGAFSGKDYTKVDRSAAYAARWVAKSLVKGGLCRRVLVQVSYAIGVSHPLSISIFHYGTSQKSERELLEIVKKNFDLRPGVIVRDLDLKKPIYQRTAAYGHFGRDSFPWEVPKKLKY

As for `Cn1cc2cc(-n3nc4c(C#N)cn(CC5CC5)c4c(-c4ccc(C5(C#N)CC5)nc4)c3=O)ccc2n1` [Example 120, 4-(6-(1-cyanocyclopropyl)pyridin-3-yl)-5-(cyclopropylmethyl)-2-(2-methyl-2H-indazol-5-yl)-3-oxo-3,5-dihydro-2H-pyrrolo[3,2-c]pyridazine-7-carbonitrile], the IC50 is under 100 nM at MAT2A homodimer, 100 to 1000 nM in assay [1], over 1000 nM with HCT116 MTAP−/− and over 1000 nM in the assay on HCT116 MTAP+/+.
For the molecule `Cn1cc2cc(-n3nc4[nH]c(=O)n(CC5CC5)c4c(-c4ccc(OC(F)F)cc4)c3=O)ccc2n1` [Example 197, 5-(cyclopropylmethyl)-4-(4-(difluoromethoxy)phenyl)-2-(2-methyl-2H-indazol-5-yl)-2,7-dihydro-3H-imidazo[4,5-c]pyridazine-3,6(5H)-dione], the IC50 on MAT2A homodimer was under 100 nM; in assay [1], under 100 nM; in the assay on HCT116 MTAP−/−, 100 to 1000 nM; in the assay with HCT116 MTAP+/+, 100 to 1000 nM.
As to `O=c1c(-c2ccc(OC(F)F)cc2)c2c(ccn2CC2CC2)nn1-c1cn[nH]c1` [Example 231, 5-(cyclopropylmethyl)-4-(4-(difluoromethoxy)phenyl)-2-(1H-pyrazol-4-yl)-2,5-dihydro-3H-pyrrolo[3,2-c]pyridazin-3-one], the IC50 on MAT2A homodimer was under 100 nM; in assay [1], 100 to 1000 nM; with HCT116 MTAP−/− it was 100 to 1000 nM; in the assay on HCT116 MTAP+/+, over 1000 nM.
As to `Cc1nc2ccc(-n3nc4ccn(CC5CC5)c4c(-c4ccc(C(F)F)nc4)c3=O)cc2n1C` [Example 140, 5-(cyclopropylmethyl)-4-(6-(difluoromethyl)pyridin-3-yl)-2-(1,2-dimethyl-1H-benzo[d]imidazol-6-yl)-2,5-dihydro-3H-pyrrolo[3,2-c]pyridazin-3-one], the IC50 is under 100 nM at MAT2A homodimer, under 100 nM in assay [1], under 100 nM with HCT116 MTAP−/− and 100 to 1000 nM in the assay with HCT116 MTAP+/+.
Turning to `[2H]C([2H])([2H])Oc1ccc(-n2nc3c(C#N)cn(CC4CC4)c3c(-c3ccc(C(F)F)nc3)c2=O)cc1` [Example 137, 5-(cyclopropylmethyl)-4-(6-(difluoromethyl)pyridin-3-yl)-2-(4-(methoxy-d3)phenyl)-3-oxo-3,5-dihydro-2H-pyrrolo[3,2-c]pyridazine-7-carbonitrile], the IC50 at MAT2A homodimer is under 100 nM; in assay [1], 100 to 1000 nM; with HCT116 MTAP−/−, 100 to 1000 nM; in the assay with HCT116 MTAP+/+, over 1000 nM.
As for `Cn1cc2cc(-n3nc4c(c(-c5ccc(C6CC6)cc5)c3=O)n(CC3CC3)c(=O)n4C)ccc2n1` [Example 200, 5-(cyclopropylmethyl)-4-(4-cyclopropylphenyl)-7-methyl-2-(2-methyl-2H-indazol-5-yl)-2,7-dihydro-3H-imidazo[4,5-c]pyridazine-3,6(5H)-dione], the IC50 on MAT2A homodimer was under 100 nM; in assay [1], under 100 nM; in the assay on HCT116 MTAP−/− it was under 100 nM; in the assay on HCT116 MTAP+/+, 100 to 1000 nM.
Take `Cn1cc2cc(-n3nc4c(C#N)cn(C[C@H]5CC5(F)F)c4c(-c4ccc(C5CC5)nc4)c3=O)ccc2n1` [Example 269, (R)-4-(6-cyclopropylpyridin-3-yl)-5-((2,2-difluorocyclopropyl)methyl)-2-(2-methyl-2H-indazol-5-yl)-3-oxo-3,5-dihydro-2H-pyrrolo[3,2-c]pyridazine-7-carbonitrile]: the IC50 is under 100 nM on MAT2A homodimer, under 100 nM in assay [1], over 1000 nM in the assay on HCT116 MTAP−/− and over 1000 nM in the assay on HCT116 MTAP+/+.
`CN(C)S(=O)(=O)c1cn(CC2CC2)c2c(-c3ccc(C4CC4)nc3)c(=O)n(-c3ccc4nn(C)cc4c3)nc12` [Example 178, 5-(cyclopropylmethyl)-4-(6-cyclopropylpyridin-3-yl)-N,N-dimethyl-2-(2-methyl-2H-indazol-5-yl)-3-oxo-3,5-dihydro-2H-pyrrolo[3,2-c]pyridazine-7-sulfonamide]: the IC50 on MAT2A homodimer is 100 to 1000 nM; in assay [1] it was over 1000 nM; in the assay on HCT116 MTAP−/− it was over 1000 nM; in the assay on HCT116 MTAP+/+, over 1000 nM.
Regarding `N#Cc1cn(CC2CC2)c2c(-c3ccc(C4CC4)nc3)c(=O)n(-c3ccc4nn(CC5CC5)cc4c3)nc12` [Example 160, 5-(cyclopropylmethyl)-2-(2-(cyclopropylmethyl)-2H-indazol-5-yl)-4-(6-cyclopropylpyridin-3-yl)-3-oxo-3,5-dihydro-2H-pyrrolo[3,2-c]pyridazine-7-carbonitrile], the IC50 at MAT2A homodimer is under 100 nM; in assay [1] it was under 100 nM; in the assay with HCT116 MTAP−/−, under 100 nM; in the assay on HCT116 MTAP+/+ it was 100 to 1000 nM.
With `Cn1cc2cc(-n3nc4[nH]cc(CC5CC5)c4c(-c4ccc(OC(F)F)cc4)c3=O)ccc2n1` [Example 271, 5-(cyclopropylmethyl)-4-(4-(difluoromethoxy)phenyl)-2-(2-methyl-2H-indazol-5-yl)-2,7-dihydro-3H-pyrrolo[2,3-c]pyridazin-3-one], the IC50 was under 100 nM at MAT2A homodimer, under 100 nM in assay [1], under 100 nM in the assay with HCT116 MTAP−/− and 100 to 1000 nM in the assay with HCT116 MTAP+/+.
On to `[2H]C([2H])([2H])Oc1ccc(-n2nc3c(C#N)cn(CC4CC4)c3c(-c3ccc(C4CC4)nc3)c2=O)cc1` [Example 124, 5-(cyclopropylmethyl)-4-(6-cyclopropylpyridin-3-yl)-2-(4-(methoxy-d3)phenyl)-3-oxo-3,5-dihydro-2H-pyrrolo[3,2-c]pyridazine-7-carbonitrile], for which the IC50 on MAT2A homodimer is under 100 nM; in assay [1], under 100 nM; in the assay with HCT116 MTAP−/− it was 100 to 1000 nM; with HCT116 MTAP+/+, over 1000 nM.
On to `Cn1cc2cc(-n3nc4c(C#N)cn(CC(F)(F)F)c4c(-c4ccc(C5CC5)nc4)c3=O)ccc2n1` [Example 133, 4-(6-cyclopropylpyridin-3-yl)-2-(2-methyl-2H-indazol-5-yl)-3-oxo-5-(2,2,2-trifluoroethyl)-3,5-dihydro-2H-pyrrolo[3,2-c]pyridazine-7-carbonitrile], for which the IC50 on MAT2A homodimer was under 100 nM; in assay [1] it was 100 to 1000 nM; in the assay on HCT116 MTAP−/−, 100 to 1000 nM; in the assay on HCT116 MTAP+/+, over 1000 nM.
